Laboratory results reported in publication PMC3419607, “Effect of Alpinia zerumbet components on antioxidant and skin diseases-related enzymes” (BMC Complementary and Alternative Medicine, 2012).
In brackets after ≈: the same amount, converted by molar mass.

Tests used:
[1] = Total antioxidant activity (ABTS) assay; details: ABTS radical scavenging, 6 min, 734 nm
Experimental: The total antioxidant activity of test sample was measured with modified method as described previously. ABTS^·+ solution was generated by mixing 7 mM ABTS and 2.45 mM potassium persulfate (K2S2O8) in water, which was placed in the dark at room temperature for 16 h to give the complete oxidation of ABTS. Before using, the ABTS^·+ solution was diluted with water to get an absorbance of 0.700 ± 0.050 at 734 nm. Briefly, 1 ml of ABTS^·+ solution was added to 30 μl of test samples and mixed thoroughly. BHT was used as positive control and the sample solutions were used as controls. The reactive mixture was incubated at room temperature for 6 min and the absorbance was immediately recorded at 734 nm.
(§1) The ability of the extracts to scavenge DPPH, ABTS^·+, PMS-NADH radicals were calculated by following formula:
(§2) Radical scavenging (%) = [(O.Dcontrol – O.Dsample)/ O.Dcontrol] x 100,
(§3) where O.D is the optical density in the presence or absence of the samples.

[2] = PMS-NADH system superoxide-radical scavenging assay; details: 560 nm
Experimental: The superoxide scavenging activity was assayed following the method of Lau et al. with minor modifications. The reaction mixture contained 0.5 ml of 105 μM NADH, 0.5 ml of 66 μM NBT dissolved in 0.1 M phosphate buffer (pH 7.4) and 0.1 ml sample in different concentrations. The reaction was initiated by adding 0.5 ml of 30 μM PMS into the reaction mixture. Methanol and water were used as a control and BHT as a positive control. After 10 min, the reaction mixture reached to stable color, measurement of absorbance was conducted at 560 nm.
as §1, §2, §3

[3] = DPPH radical scavenging activity assay; details: 30 min, 517 nm
Experimental: The free radical scavenging activity was evaluated as described previously. Five hundred microlilters of the different concentration of test samples were mixed with 200 μl of 0.5 mM DPPH methanol solution and 500 μl of 0.1 M sodium acetate buffer (pH 5.5). After shaking, the mixture was incubated in the dark at room temperature for 30 min, and then the absorbance was measured at 517 nm. BHT was used as a positive control, while water and methanol were used as controls for calculation.
as §1, §2, §3

[4] = biological target: T1, hyaluronidase from bovine test (Bos taurus, UniProt Q2YDK3); experiment: Hyaluronidase inhibition assay; type: biochemical; details: plant parts: aqueous extract
T1 construct: from tissue; host or cells: bovine testes (printed 'bovine test')
T1 sequence (Q2YDK3 36-553): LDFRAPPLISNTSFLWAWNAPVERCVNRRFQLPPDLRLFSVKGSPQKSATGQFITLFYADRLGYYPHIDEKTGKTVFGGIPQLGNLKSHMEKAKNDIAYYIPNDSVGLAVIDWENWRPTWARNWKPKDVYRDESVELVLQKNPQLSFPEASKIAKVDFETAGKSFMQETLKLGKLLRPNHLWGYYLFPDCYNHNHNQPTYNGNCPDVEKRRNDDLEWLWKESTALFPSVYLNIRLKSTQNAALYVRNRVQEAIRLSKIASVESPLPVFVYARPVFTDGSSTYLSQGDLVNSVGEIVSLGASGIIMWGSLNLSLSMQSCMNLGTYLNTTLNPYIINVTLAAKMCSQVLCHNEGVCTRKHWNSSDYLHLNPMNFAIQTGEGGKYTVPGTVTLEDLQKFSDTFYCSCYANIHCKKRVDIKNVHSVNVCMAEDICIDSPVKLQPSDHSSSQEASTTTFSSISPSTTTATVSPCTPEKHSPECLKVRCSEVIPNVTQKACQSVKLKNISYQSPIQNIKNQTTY

[5] = biological target: T2, elastase from porcine pancreas (Sus scrofa, UniProt P00772); experiment: Elastase inhibition assay (SANA substrate); type: biochemical; details: plant parts: aqueous extract
T2 construct: from tissue; host or cells: porcine pancreas
From the text: The inhibitory activity determined the intensity of color released during cleavage of SANA by the action of elastase.

[6] = biological target: Collagenase from Clostridium histolyticum (ChC); experiment: Collagenase inhibition assay (FALGPA substrate); type: biochemical; details: plant parts: aqueous extract
Experimental: Collagenase inhibition assay was performed by the method described previously which based on the hydrolysis of N-[3-(2-furyl)acryloyl]-Leu-Gly-Pro-Ala (FALGPA) by collagenase to produce FA-Leu and Gly-Pro-Ala. The assay was performed in 50 mM Tricine buffer (400 mM NaCl and 10 mM CaCl2, pH 7.5). Collagenase from Clostridium histolyticum (ChC) was dissolved in the buffer for use at an initial concentration of 0.8 units/ ml. The synthetic substrate, FALGPA, was dissolved in the Tricine buffer to 2 mM. Sample extracts were incubated with the enzyme in the buffer for 15 min before adding substrate to start reaction. The final reaction mixture (150 μl total volume) contained Tricine buffer, 0.8 mM of FALGPA, 0.1 units of ChC and 25 μg of test extracts. Controls were performed with water and methanol, while oleanolic acid as a positive control. After adding substrate for 20 min, collagenase activity was measured at 340 nm.
The percentage inhibition for collagenase, elastase and hyaluronidase assays were calculated by:
Enzyme inhibition activity (%) = (1– B/A) x 100, where A is the enzyme activity without sample and B is the activity in presence of the sample.

T2 sequence (P00772 27-266): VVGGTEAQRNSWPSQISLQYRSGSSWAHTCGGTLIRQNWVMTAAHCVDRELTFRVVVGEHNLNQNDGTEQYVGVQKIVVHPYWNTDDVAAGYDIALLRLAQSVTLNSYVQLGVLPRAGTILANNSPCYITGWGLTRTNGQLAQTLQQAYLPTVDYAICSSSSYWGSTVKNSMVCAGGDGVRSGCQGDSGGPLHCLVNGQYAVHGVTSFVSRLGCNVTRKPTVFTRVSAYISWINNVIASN

| Structure (SMILES) | Inhibitory effect (IC50) ABTS [1] | Inhibitory effect (IC50) PMS-NADH [2] | Inhibitory effect (IC50) DPPH [3] | IC50 [4] [µM] | IC50 [5] [µM] | IC50 collagenase inhibition [6] [µg/mL] |
| --- | --- | --- | --- | --- | --- | --- |
| Cc1cc(C(C)(C)C)c(O)c(C(C)(C)C)c1 [BHT, tert-butyl hydroxytoluene, reference compound] | 14.26 ± 0.16 a μg/mL | 24.80 ± 0.98 a μg/mL | 11.74 ± 0.15 a ^1 μg/mL |  |  |  |
| COc1cc(/C=C/c2ccccc2)oc(=O)c1 [DK, 5,6-dehydrokawain] | 110.08 ± 3.34 µg/mL | 127.78 ± 4.75 µg/mL | 122.14 ± 1.40 µg/mL | 85.3 | 85 | 24.93 ± 0.97 (≈ 109 µM) |
| CC1(C)CC[C@]2(C(=O)O)CC[C@]3(C)C(=CC[C@@H]4[C@@]5(C)CC[C@H](O)C(C)(C)[C@@H]5CC[C@]43C)[C@@H]2C1 [oleanolic acid, reference compound] |  |  |  |  |  | 17.95 ± 0.23 (≈ 39.3 µM) |
